Here are results for three molecules from patent US7910548B2, “Methods for treating obesity” (Amylin Pharmaceuticals, Inc., priority 1997, dated 2011).

Bridges are numbered along the chain shown (N, C = ends). Where no end group is shown, it is not given here.

Experiment [1] in a line: Tritiated glucose gastric emptying assay. Format: in vivo, rat. From the text:
In a phenol red method, which is described in Example 7 below, conscious rats receive by gavage an acoloric gel containing methyl cellulose and a phenol red indicator. Twenty minutes after gavage, animals are anesthetized using halothane, the stomach exposed and clamped at the pyloric and lower esophageal sphincters, removed and opened into an alkaline solution. Stomach content may be derived from the intensity of the phenol red in the alkaline solution, measured by absorbance at a wavelength of 560 nm. In a tritiated glucose method, which is described in Example 8 below, conscious rats are gavaged with tritiated glucose in water. The rats are gently restrained by the tail, the tip of which is anesthetized using lidocaine. Tritium in the plasma separated from tail blood is collected at various timepoints and detected in a beta counter. Test compounds are normally administered about one minute before gavage.
Conscious, non-fasted, Harlan Sprague Dawley rats were restrained by the tail, the tip of which was anesthetized using 2% lidocaine. Tritium in plasma separated from tail blood collected 0, 15, 30, 60, 90 and 120 minutes after gavage was detected in a beta counter.

Experiment [2] in a line: Measurement of body weight in insulin-using Type II diabetes patients, 4-week study. The settings on record: 4 weeks, change from baseline. Format: in vivo, human. Here is the method: Study participants were males and females 25 to 78 years of age with a history of Type II diabetes mellitus requiring treatment with insulin for at least 6 months prior to the pre-screening visit. […] The study employed methods described in Thompson et al., Diabetes 46:632-636 (1997). Following a placebo lead-in period, patients were randomized to receive placebo or one of three dose regimens of ^25,28,29Pro-h-amylin (pramlintide) for 4 weeks: 30 μg QID (before breakfast, lunch, dinner and evening snack), 60 μg TID (before breakfast, lunch and dinner) or 60 μg QID (before breakfast, lunch, dinner and evening snack). Throughout the study drug period, patients self-administered four injections of study drug daily, within 15 minutes of each meal and the evening snack. During the double-blind period, patients randomized to pramlintide 60 μg TID administered placebo before the evening snack. Both pramlintide and placebo were administered as separate injections into the subcutaneous tissue of the anterior abdominal wall; the specific site was alternated after each injection. Patients were instructed to remain on their usual diet, insulin and exercise regimens throughout the study, unless otherwise instructed by the investigator, and to abstain from alcoholic beverages prior to all clinic visits.

For experiment [3], the target named is amylin receptors in membranes of rat basal forebrain (nucleus accumbens and surrounding regions) (rat). In words: competition with 125I-rat amylin on rat basal forebrain membranes.

With rat amylin, the “ED50 derived from the logistic fit (plasma tritium AUC over 30 minutes)” value in experiment [1] (non-fasted Harlan Sprague Dawley rats, subcutaneous 1 minute before gavage) is listed as 0.35 μg. Further, the “Absorption of the label (plasma tritium)” value in experiment [1] (subcutaneous injection, 0.1-100 μg) was “dose-dependently slowed and/or delayed the absorption of the label”.

In the case of `CC[C@H](C)[C@H](NC(=O)[C@@H]1CCCN1C(=O)CNC(=O)[C@H](Cc1ccccc1)NC(=O)[C@H](CC(N)=O)NC(=O)[C@H](CC(N)=O)NC(=O)[C@H](CO)NC(=O)[C@H](CO)NC(=O)[C@H](Cc1c[nH]cn1)NC(=O)[C@@H](NC(=O)[C@H](CC(C)C)NC(=O)[C@H](Cc1ccccc1)NC(=O)[C@H](CC(N)=O)NC(=O)[C@H](C)NC(=O)[C@H](CC(C)C)NC(=O)[C@H](CCCNC(=N)N)NC(=O)[C@H](CCC(N)=O)NC(=O)[C@@H](NC(=O)[C@H](C)NC(=O)[C@@H]1CSSC[C@H](NC(=O)[C@@H](N)CCCCN)C(=O)N[C@@H](CC(N)=O)C(=O)N[C@@H]([C@@H](C)O)C(=O)N[C@@H](C)C(=O)N[C@@H]([C@@H](C)O)C(=O)N1)[C@@H](C)O)C(C)C)C(=O)N[C@@H](CC(C)C)C(=O)N1CCC[C@H]1C(=O)N1CCC[C@H]1C(=O)N[C@H](C(=O)N[C@@H](CC(N)=O)C(=O)N[C@H](C(=O)NCC(=O)N[C@@H](CO)C(=O)N[C@@H](CC(N)=O)C(=O)N[C@H](C(=O)N[C@@H](Cc1ccc(O)cc1)C(N)=O)[C@@H](C)O)C(C)C)[C@@H](C)O` [Pramlintide, ^25,28,29Pro-h-amylin], the “Body Weight: Change at Week 4, Median” value in experiment [2] (30 μg QID subcutaneous) is -0.45 kg; in experiment [2] (60 μg QID subcutaneous), -0.45 kg; in experiment [2] (60 μg TID subcutaneous), -1.05 kg.

KDNTATKATQRLANFLVHSSNNFGAILSSTNVGSNTY (lactam 2-7; ends not checked) [^2,7Cyclo-[^2Asp, ^7Lys]-h-Amylin] had an IC50 in experiment [3] of 0.31 nM.
